Data published in patent publication US20170137387A1, “PHARMACOLOGICALLY ACTIVE QUINAZOLINEDIONE DERIVATIVES” (ORION CORPORATION, priority 2014, published 2017).

Tests used:
[1] = target: T1, human GABAB1 and GABAB2 receptor subunits (Homo sapiens, UniProt O75899+Q9UBS5); test: Agonism and positive allosteric modulator pharmacology in vitro, two-addition FLIPR calcium assay; type: cell-based; details: CHO cells co-expressing Galpha16; for IA (GABAB agonism): agonism efficacy at 30 μM / GABA efficacy at 30 μM; for IA (GABAB positive allosteric modulation): positive allosteric modulator efficacy at 10 μM (with EC10.5 GABA) / GABA efficacy at 30 μM
T1 construct: expressed in transfected cells; host or cells: CHO cells
T1 sequence (Q9UBS5 15-961 limits assumed): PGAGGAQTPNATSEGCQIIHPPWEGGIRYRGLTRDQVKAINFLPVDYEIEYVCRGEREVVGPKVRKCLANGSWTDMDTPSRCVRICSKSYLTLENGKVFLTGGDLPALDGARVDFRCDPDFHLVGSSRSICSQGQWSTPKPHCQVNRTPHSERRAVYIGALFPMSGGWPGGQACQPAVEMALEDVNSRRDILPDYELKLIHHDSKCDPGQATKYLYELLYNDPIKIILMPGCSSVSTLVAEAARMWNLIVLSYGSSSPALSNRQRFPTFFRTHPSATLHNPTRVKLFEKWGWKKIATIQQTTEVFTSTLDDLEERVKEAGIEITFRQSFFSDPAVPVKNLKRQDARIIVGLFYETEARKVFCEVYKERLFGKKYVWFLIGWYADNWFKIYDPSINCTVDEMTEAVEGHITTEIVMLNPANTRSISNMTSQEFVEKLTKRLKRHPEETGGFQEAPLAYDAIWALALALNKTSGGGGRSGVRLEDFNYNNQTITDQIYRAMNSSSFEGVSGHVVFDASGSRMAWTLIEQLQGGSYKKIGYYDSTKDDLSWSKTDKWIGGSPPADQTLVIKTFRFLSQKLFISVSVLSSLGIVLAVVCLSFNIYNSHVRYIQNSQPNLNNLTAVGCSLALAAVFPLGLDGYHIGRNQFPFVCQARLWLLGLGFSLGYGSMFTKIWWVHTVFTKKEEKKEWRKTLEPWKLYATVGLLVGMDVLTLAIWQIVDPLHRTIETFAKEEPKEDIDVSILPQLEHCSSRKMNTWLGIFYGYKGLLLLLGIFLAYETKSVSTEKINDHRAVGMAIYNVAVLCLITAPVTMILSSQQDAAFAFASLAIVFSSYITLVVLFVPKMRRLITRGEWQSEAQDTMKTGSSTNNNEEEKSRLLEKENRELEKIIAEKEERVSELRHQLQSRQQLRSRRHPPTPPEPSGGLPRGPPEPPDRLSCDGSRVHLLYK
T1 sequence (O75899 42-941): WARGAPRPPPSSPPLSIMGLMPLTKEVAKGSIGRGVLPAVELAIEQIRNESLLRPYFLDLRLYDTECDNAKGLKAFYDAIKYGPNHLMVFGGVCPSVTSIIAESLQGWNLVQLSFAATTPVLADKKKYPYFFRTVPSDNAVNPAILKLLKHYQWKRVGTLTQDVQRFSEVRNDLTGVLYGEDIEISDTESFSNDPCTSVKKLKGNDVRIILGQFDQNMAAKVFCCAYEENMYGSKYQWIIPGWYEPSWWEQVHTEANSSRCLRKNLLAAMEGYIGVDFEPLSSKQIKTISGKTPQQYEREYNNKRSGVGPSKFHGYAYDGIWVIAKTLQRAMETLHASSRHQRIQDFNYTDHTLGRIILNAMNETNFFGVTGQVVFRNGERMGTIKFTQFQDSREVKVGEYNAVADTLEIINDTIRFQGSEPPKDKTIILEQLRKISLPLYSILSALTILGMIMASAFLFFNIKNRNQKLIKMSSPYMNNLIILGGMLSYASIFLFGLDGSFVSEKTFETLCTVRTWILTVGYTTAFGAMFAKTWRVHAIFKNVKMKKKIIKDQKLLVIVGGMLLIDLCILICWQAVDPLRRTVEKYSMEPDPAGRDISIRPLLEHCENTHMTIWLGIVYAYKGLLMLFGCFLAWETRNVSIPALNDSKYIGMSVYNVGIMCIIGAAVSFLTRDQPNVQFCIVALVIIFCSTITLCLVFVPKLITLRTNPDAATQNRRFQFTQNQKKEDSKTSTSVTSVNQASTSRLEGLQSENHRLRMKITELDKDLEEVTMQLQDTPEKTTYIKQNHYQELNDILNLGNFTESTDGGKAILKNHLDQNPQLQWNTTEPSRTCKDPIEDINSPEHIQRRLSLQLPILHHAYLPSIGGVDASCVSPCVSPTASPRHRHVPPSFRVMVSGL
Procedure: (§1) CHO cells expressing the human GABAB1 and GABAB2 receptor subunits co-expressing promiscuous Galpha16 proteins to force couple the receptor to the intracellular calcium signalling pathway were used to study GABAB pharmacology in vitro. The cells were maintained at 37° C. in a 5% CO2 95% air atmosphere in HAM F-12 medium supplemented with 10% foetal bovine serum and selection antibiotics.
(§2) The day before the experiment the cells were detached and plated into black-walled clear bottom 384-well plates at a cell density of 20 000 cells per well. The growth medium was removed and the cells were incubated with FLIPR Calcium 5 Assay reagent (Molecular Devices, CA, USA) diluted 1:1 in Probenecid-Ringer for 1 h at 37° C. in dark. Probenecid-Ringer buffer consisted of 150 mM NaCl, 3 mM KCl, 1.2 mM MgCl2, 1 mM CaCl2, 5 mM glucose, 20 mM 2-(4-(2-hydroxyethyl)piperazin-1-yl)ethanesulfonic acid (HEPES), and 2.5 mM Probenecid (pH 7.4 adjusted with 1.0 M NaOH and osmolarity adjusted to […]). Compounds were dissolved in Probenecid-Ringer. […] The samples were excited at 470-495 nm and emission was detected at 515-575 nm. All experiments were performed at 37° C.
A two-addition protocol was used to determine agonism and positive allosteric modulator pharmacology in the same assay using a kinetic read out. Agonism pharmacology of compounds was studied in the first addition in the concentration range 0.123-30 μM in quadruplicate at each concentration. In the second addition, a low (EC10.5) concentration of GABA was applied to detect the positive allosteric modulator pharmacology of the compounds to be studied. The EC10.5 concentration was determined from the GABA EC50 value using the formula ECF≈(F/(100-F))^1/H·EC50, wherein F is the fraction of full response and H is Hill slope.
(§3) Baseline fluorescence minimum was subtracted from maximum for the calculation of agonism and positive allosteric modulator pharmacology. Both in the agonism mode and in the allosteric mode, the efficacy was related to the intrinsic activity (IA) of the endogenous agonist GABA at 30 μM (positive allosteric modulator efficacy at 10 μM/GABA efficacy or agonism efficacy at 30 μM/GABA efficacy). To determine potentiation of GABA dose-response, the compounds, at a concentration of 10 μM diluted in Probenecid-Ringer, were added by FLIPR tetra followed by addition of GABA (diluted in water in the concentration range 0.123-10 μM). The EC50 values were determined using a four-parameter logistic fit (model 205 in ActivityBase XE). The EC50 value of GABA was divided with the EC50 value of GABA in the presence of positive allosteric modulator to determine potentiation of GABA dose-response EC50 value.

[2] = target: T1, human GABAB1 and GABAB2 receptor subunits; test: Potentiation of GABA dose-response, FLIPR calcium assay; type: cell-based; details: compound at 10 μM; EC50 of GABA divided by EC50 of GABA in the presence of positive allosteric modulator
Procedure: as §1, §2, §3

Row | IA (GABAB agonism) [1] | IA (GABAB positive allosteric modulation) [1] | Potentiation of GABA (fold) [2] [fold] | Compound
1 | 0.02 | 0.71 | 9.5 | CC1(C)Cn2c(=O)n(Cc3ccc(Cl)cc3)c(=O)c3ccc(Cl)c(c32)O1 [Example 67, 10-Chloro-6-(4-chlorobenzyl)-2,2-dimethyl-2H-[1,4]oxazino[2,3,4-ij]quinazoline-5,7(3H,6H)-dione]
2 | 0.08 | 0.48 | 1.7 | CC(C)(C)C(=O)Cn1c(=O)n(Cc2ccc(Br)cc2)c(=O)c2ccc(F)cc21 [Example 26, 3-(4-Bromobenzyl)-1-(3,3-dimethyl-2-oxobutyl)-7-fluoroquinazoline-2,4(1H,3H)-dione]
